Test results taken from patent US8779004B2, “Stable emulsion formulations” (Amgen, Inc., priority 2006, dated 2014).
Marks after values point to notes of the source that are not given here.

Key:
[1] = Short-term storage stability of emulsions (drug conc., pH, particle size); format: physicochemical; conditions: emulsion
Text: This Example illustrates the effect of the storage temperature on short-term stability of the formulations of the invention as measured by pH and the size of the droplets. The results of short term stability of cinacalcet at different temperatures and varying TRIS buffer concentrations are presented in Table 8. Cinacalcet was stable in the emulsion formulation over 12 weeks. The pH of the emulsion is lower over time for both placebo and cinacalcet emulsions. The drop in pH is less at lower storage temperature and higher TRIS concentration.
The results of short-term stability of cinacalcet at different temperatures and varying DEA buffer concentrations are presented in Table 9. Cinacalcet was stable in the emulsion formulation over 12 weeks. pH of the emulsion is lower over time for both placebo and cinacalcet emulsion. The drop in pH is less at lower storage temperature and higher DEA concentration.

[2] = pH and particle size of crude cinacalcet emulsions with different oils and phospholipids; format: physicochemical; design: unit not given here; conditions: emulsion; STG 20%; 1% Purified Soy Lecithin; after a single autoclaving cycle

Question: With C[C@@H](NCCCc1cccc(C(F)(F)F)c1)c1cccc2ccccc12 [Cinacalcet, N-(1-(R)-(1-naphthyl)ethyl]-3-[3-(trifluoromethyl)phenyl]-1-aminopropane] as the compound, how does the Cinacalcet conc. ([1]; TRIS 5 mM, 5° C., 0 weeks) read?
Answer: 4.43 mg/mL

Question: And the D(4, 3) ([1]; TRIS 5 mM, 5° C., 0 weeks)?
Answer: 0.31 µm

Question: What about the pH ([1]; TRIS 5 mM, 5° C., 0 weeks) of the same compound?
Answer: 8.80

Question: What about the Cinacalcet conc. ([1]; TRIS 5 mM, 5° C., 2 weeks) of the same compound?
Answer: 4.18 mg/mL

Question: What about the D(4, 3) ([1]; TRIS 5 mM, 5° C., 2 weeks) of the same compound?
Answer: 0.31 µm

Question: And the pH ([1]; TRIS 5 mM, 5° C., 2 weeks)?
Answer: 8.69

Question: And the Cinacalcet conc. ([1]; TRIS 5 mM, 5° C., 4 weeks)?
Answer: 4.38 mg/mL

Question: What about the D(4, 3) ([1]; TRIS 5 mM, 5° C., 4 weeks) of the same compound?
Answer: 0.3 µm

Question: And the pH ([1]; TRIS 5 mM, 5° C., 4 weeks)?
Answer: 8.65

Question: And the Cinacalcet conc. ([1]; TRIS 5 mM, 5° C., 6 weeks)?
Answer: 4.33 mg/mL

Question: And the D(4, 3) ([1]; TRIS 5 mM, 5° C., 6 weeks)?
Answer: 0.3 µm

Question: What about the pH ([1]; TRIS 5 mM, 5° C., 6 weeks) of the same compound?
Answer: 8.59

Question: And the Cinacalcet conc. ([1]; TRIS 5 mM, 5° C., 8 weeks)?
Answer: 4.47 mg/mL

Question: What about the D(4, 3) ([1]; TRIS 5 mM, 5° C., 8 weeks) of the same compound?
Answer: 0.31 µm

Question: And the pH ([1]; TRIS 5 mM, 5° C., 8 weeks)?
Answer: 8.60

Question: And the Cinacalcet conc. ([1]; TRIS 5 mM, 5° C., 12 weeks)?
Answer: 4.32 mg/mL

Question: And the D(4, 3) ([1]; TRIS 5 mM, 5° C., 12 weeks)?
Answer: 0.31 µm

Question: And the pH ([1]; TRIS 5 mM, 5° C., 12 weeks)?
Answer: 8.50

Question: What about the Cinacalcet conc. ([1]; TRIS 5 mM, 40° C., 0 weeks) of the same compound?
Answer: 4.43 mg/mL

Question: And the D(4, 3) ([1]; TRIS 5 mM, 40° C., 0 weeks)?
Answer: 0.31 µm

Question: What about the pH ([1]; TRIS 5 mM, 40° C., 0 weeks) of the same compound?
Answer: 8.80

Question: What about the Cinacalcet conc. ([1]; TRIS 5 mM, 40° C., 2 weeks) of the same compound?
Answer: 4.17 mg/mL

Question: What about the D(4, 3) ([1]; TRIS 5 mM, 40° C., 2 weeks) of the same compound?
Answer: 0.31 µm

Question: What about the pH ([1]; TRIS 5 mM, 40° C., 2 weeks) of the same compound?
Answer: 8.41

Question: And the Cinacalcet conc. ([1]; TRIS 5 mM, 40° C., 4 weeks)?
Answer: 4.36 mg/mL

Question: What about the D(4, 3) ([1]; TRIS 5 mM, 40° C., 4 weeks) of the same compound?
Answer: 0.31 µm

Question: And the pH ([1]; TRIS 5 mM, 40° C., 4 weeks)?
Answer: 8.29

Question: What about the Cinacalcet conc. ([1]; TRIS 5 mM, 40° C., 6 weeks) of the same compound?
Answer: 4.29 mg/mL

Question: What about the D(4, 3) ([1]; TRIS 5 mM, 40° C., 6 weeks) of the same compound?
Answer: 0.47 µm

Question: And the pH ([1]; TRIS 5 mM, 40° C., 6 weeks)?
Answer: 8.20

Question: And the Cinacalcet conc. ([1]; TRIS 5 mM, 40° C., 8 weeks)?
Answer: 4.45 mg/mL

Question: And the D(4, 3) ([1]; TRIS 5 mM, 40° C., 8 weeks)?
Answer: 0.48 µm

Question: What about the pH ([1]; TRIS 5 mM, 40° C., 8 weeks) of the same compound?
Answer: 8.11

Question: What about the Cinacalcet conc. ([1]; TRIS 5 mM, 40° C., 12 weeks) of the same compound?
Answer: 4.33 mg/mL

Question: What about the D(4, 3) ([1]; TRIS 5 mM, 40° C., 12 weeks) of the same compound?
Answer: 0.36 µm

Question: And the pH ([1]; TRIS 5 mM, 40° C., 12 weeks)?
Answer: 8.12

Question: And the Cinacalcet conc. ([1]; TRIS 20 mM, 5° C., 0 weeks)?
Answer: 4.92 mg/mL

Question: What about the D(4, 3) ([1]; TRIS 20 mM, 5° C., 0 weeks) of the same compound?
Answer: 0.29 µm

Question: And the pH ([1]; TRIS 20 mM, 5° C., 0 weeks)?
Answer: 9.13

Question: And the Cinacalcet conc. ([1]; TRIS 20 mM, 5° C., 2 weeks)?
Answer: 4.47 mg/mL

Question: And the D(4, 3) ([1]; TRIS 20 mM, 5° C., 2 weeks)?
Answer: 0.29 µm

Question: And the pH ([1]; TRIS 20 mM, 5° C., 2 weeks)?
Answer: 8.98

Question: And the Cinacalcet conc. ([1]; TRIS 20 mM, 5° C., 4 weeks)?
Answer: 4.79 mg/mL

Question: What about the D(4, 3) ([1]; TRIS 20 mM, 5° C., 4 weeks) of the same compound?
Answer: 0.29 µm

Question: What about the pH ([1]; TRIS 20 mM, 5° C., 4 weeks) of the same compound?
Answer: 8.99

Question: What about the Cinacalcet conc. ([1]; TRIS 20 mM, 5° C., 6 weeks) of the same compound?
Answer: 4.72 mg/mL

Question: And the D(4, 3) ([1]; TRIS 20 mM, 5° C., 6 weeks)?
Answer: 0.28 µm

Question: What about the pH ([1]; TRIS 20 mM, 5° C., 6 weeks) of the same compound?
Answer: 8.87

Question: What about the Cinacalcet conc. ([1]; TRIS 20 mM, 5° C., 8 weeks) of the same compound?
Answer: 4.91 mg/mL

Question: What about the D(4, 3) ([1]; TRIS 20 mM, 5° C., 8 weeks) of the same compound?
Answer: 0.29 µm

Question: What about the pH ([1]; TRIS 20 mM, 5° C., 8 weeks) of the same compound?
Answer: 9.02

Question: What about the Cinacalcet conc. ([1]; TRIS 20 mM, 5° C., 12 weeks) of the same compound?
Answer: 4.76 mg/mL

Question: What about the D(4, 3) ([1]; TRIS 20 mM, 5° C., 12 weeks) of the same compound?
Answer: 0.29 µm

Question: And the pH ([1]; TRIS 20 mM, 5° C., 12 weeks)?
Answer: 8.93

Question: What about the Cinacalcet conc. ([1]; TRIS 20 mM, 40° C., 0 weeks) of the same compound?
Answer: 4.92 mg/mL

Question: And the D(4, 3) ([1]; TRIS 20 mM, 40° C., 0 weeks)?
Answer: 0.29 µm

Question: And the pH ([1]; TRIS 20 mM, 40° C., 0 weeks)?
Answer: 9.13

Question: What about the Cinacalcet conc. ([1]; TRIS 20 mM, 40° C., 2 weeks) of the same compound?
Answer: 4.48 mg/mL

Question: And the D(4, 3) ([1]; TRIS 20 mM, 40° C., 2 weeks)?
Answer: 0.29 µm

Question: What about the pH ([1]; TRIS 20 mM, 40° C., 2 weeks) of the same compound?
Answer: 8.82

Question: What about the Cinacalcet conc. ([1]; TRIS 20 mM, 40° C., 4 weeks) of the same compound?
Answer: 4.75 mg/mL

Question: What about the D(4, 3) ([1]; TRIS 20 mM, 40° C., 4 weeks) of the same compound?
Answer: 0.29 µm

Question: What about the pH ([1]; TRIS 20 mM, 40° C., 4 weeks) of the same compound?
Answer: 8.79

Question: And the Cinacalcet conc. ([1]; TRIS 20 mM, 40° C., 6 weeks)?
Answer: 4.73 mg/mL

Question: What about the D(4, 3) ([1]; TRIS 20 mM, 40° C., 6 weeks) of the same compound?
Answer: 0.29 µm

Question: And the pH ([1]; TRIS 20 mM, 40° C., 6 weeks)?
Answer: 8.75

Question: What about the Cinacalcet conc. ([1]; TRIS 20 mM, 40° C., 8 weeks) of the same compound?
Answer: 4.96 mg/mL

Question: And the D(4, 3) ([1]; TRIS 20 mM, 40° C., 8 weeks)?
Answer: 0.29 µm

Question: And the pH ([1]; TRIS 20 mM, 40° C., 8 weeks)?
Answer: 8.76

Question: What about the Cinacalcet conc. ([1]; TRIS 20 mM, 40° C., 12 weeks) of the same compound?
Answer: 4.82 mg/mL

Question: And the D(4, 3) ([1]; TRIS 20 mM, 40° C., 12 weeks)?
Answer: 0.29 µm

Question: And the pH ([1]; TRIS 20 mM, 40° C., 12 weeks)?
Answer: 8.63

Question: And the “D(4, 3)” value [2]?
Answer: 0.94^a
